# Test results taken from US11845744B2, “Methods and compositions for modulating splicing” (Skyhawk Therapeutics, Inc., priority 2019, dated 2023).
# Columns and labels:
# SMN protein = SMN protein assay (Mesoscale Discovery) in SMA patient fibroblasts (GM03813); format: cell-based, human; details: 48 hours, MSD assay, read-out: SMN EC50 (SMN Protein Potency)
# Experimental: Compounds were tested on spinal muscular atrophy (SMA) patient fibroblasts (GM03813, Coriell) at doses ranging from 2.5 μM to 0.6 nM. 7000 cells/well were seeded in 96-well plates. Compounds were incubated for 48 hours and the cells were lysed with 100 μL of lysis buffer. 20 μL of lysate was used for SMN protein measurement by Mesoscale Discovery (MSD) assay developed by PharmOptima (Michigan). A standard curve prepared with SMN protein ranging from 1 μg/ml to 19.5 pg/ml was used in each MSD plate to calculate the absolute SMN protein amount in each sample.
# [1] = tested on: MDR1-MDCK cell monolayers; assay: MDCK-MDR1 permeability assay for blood-brain-barrier penetration potential (Papp, efflux ratio); format: in vitro ADME; details: 5 μM; for MDCK-MDR1: % Recov A-B: apical to basolateral; for MDCK-MDR1: % Recov A-B / MDCK-MDR1: % Recov B-A: 120 minutes, pH 7.4; for MDCK-MDR1: % Recov B-A: basolateral to apical
# Experimental: (§1) The dosing solution concentration was 5 μM of test article in the assay buffer. […] Each determination was performed in duplicate. […] All samples were assayed by LC-MS/MS using electrospray ionization. Analytical conditions are outlined below.
# (§2) The apparent permeability (Papp) and percent recovery were calculated as follows: […]
# MDR1 = assay: as above; format: in vitro ADME; details: dog; for Papp A→B at 120 min, 5 μM: MDCK-MDR1, apical to basolateral; for Papp A→B at 120 min, 5 μM / Papp B→A at 120 min, 5 μM: pH 7.4; for Papp B→A at 120 min, 5 μM: MDCK-MDR1, basolateral to apical; for efflux ratio at 120 min, 5 μM: MDCK-MDR1, pH 7.4, Efflux ratio = Papp (B-to-A)/Papp (A-to-B)
# Experimental: as §1, §2
# SMN = assay: Quantitative splicing assay (SMN) in SMA patient fibroblasts (GM03813), qPCR of SMN FL and SMN Δ7; format: cell-based; details: Homo sapiens, Fibroblast, 24 h, SMN FL mRNA by qPCR
# Experimental: Spinal muscular atrophy (SMA) patient fibroblasts (GM03813, Coriell) were plated in 96-well plates at 50,000 cells/well. Immediately after plating, cells were dosed with compounds for 24 h at concentrations ranging from 2.5 μM to 0.6 nM (0.1% DMSO). Treated cells were lysed and cDNA synthesized using the Fast Advanced Cells-to-Ct kit (ThermoFisher A35378) according to the manufacturer's instructions. 2 μL of each cDNA were used in qPCR reactions. The qPCR reactions were prepared in 384-well plates in 10 μL volume, using TaqMan™ Fast Advanced Master Mix (ThermoFisher; 4444965) with primers and probes shown in the table below. Reactions were run in a Quant Studio 6 qPCR instrument with default settings.
SMILES,EC50 (SMN protein),MDCK-MDR1: % Recov A-B [1],MDCK-MDR1: % Recov B-A [1],"Papp A→B at 120 min, 5 μM (MDR1)","Papp B→A at 120 min, 5 μM (MDR1)","efflux ratio at 120 min, 5 μM (MDR1)",EC50 (SMN),MDCK-MDR1: Efflux ([1]; Efflux ratio = Papp (B-to-A)/Papp (A-to-B))
"CN(c1cnc(-c2ccc(-c3ccn(C)c(=O)c3)cc2O)nn1)[C@@H]1C[C@H]2CC[C@H](N2)[C@@H]1F (single isomer, unassigned) [Compound 1A]",500 to 10000 nM,81%,94%,0.12 ×10⁻⁶ cm/s,37.8 ×10⁻⁶ cm/s,309,–,–
"CN(c1cnc(-c2ccc(-c3ccn(C)c(=O)c3)cc2O)nn1)[C@H]1C[C@@H]2CC[C@@H](N2)[C@H]1F (single isomer, unassigned) [Compound 1B]",500 to 10000 nM,95%,84%,0.3 ×10⁻⁶ cm/s,46.4 ×10⁻⁶ cm/s,152,–,–
"CN(c1cnc(-c2ccc(-c3cn[nH]c3)cc2O)nn1)[C@@H]1C[C@H]2CC[C@H](N2)[C@@H]1F (single isomer, unassigned) [Compound 2A]",500 to 10000 nM,78%,74%,2.05 ×10⁻⁶ cm/s,39.8 ×10⁻⁶ cm/s,19,–,–
"CN(c1cnc(-c2ccc(-c3cn[nH]c3)cc2O)nn1)[C@H]1C[C@@H]2CC[C@@H](N2)[C@H]1F (single isomer, unassigned) [Compound 2B]",0.01 to 15 nM,93%,96%,2.26 ×10⁻⁶ cm/s,53.4 ×10⁻⁶ cm/s,24,0.01 to 15 nM,–
"CN(c1cnc(-c2ccc(-c3cnn(C)c3)cc2O)nn1)[C@@H]1C[C@H]2CC[C@H](N2)[C@@H]1F (single isomer, unassigned) [Compound 3A]",15 to 50 nM,67%,72%,5.37 ×10⁻⁶ cm/s,37.3 ×10⁻⁶ cm/s,7,0.01 to 15 nM,–
"CN(c1cnc(-c2ccc(-c3cnn(C)c3)cc2O)nn1)[C@H]1C[C@@H]2CC[C@@H](N2)[C@H]1F (single isomer, unassigned) [Compound 3B]",0.01 to 15 nM,62%,76%,4.3 ×10⁻⁶ cm/s,37.8 ×10⁻⁶ cm/s,9,0.01 to 15 nM,–
"CN(C)C(=O)c1cc2cc(O)c(-c3ncc(N(C)[C@@H]4C[C@H]5CC[C@H](N5)[C@@H]4F)nn3)cc2o1 (single isomer, unassigned) [Compound 4A]",–,89%,96%,–,–,–,–,26
"CN(C)C(=O)c1cc2cc(O)c(-c3ncc(N(C)[C@H]4C[C@@H]5CC[C@@H](N5)[C@H]4F)nn3)cc2o1 (single isomer, unassigned) [Compound 4B]",–,91%,101%,3.05 ×10⁻⁶ cm/s,50 ×10⁻⁶ cm/s,16,–,–
"Cn1cc(-c2ccc(-c3ncc(O[C@@H]4C[C@H]5CCC[C@H](N5)[C@@H]4F)nn3)c(O)c2)cn1 (single isomer, unassigned) [Compound 5A]",500 to 10000 nM,69%,79%,9 ×10⁻⁶ cm/s,30.9 ×10⁻⁶ cm/s,3,–,–
"Cn1cc(-c2ccc(-c3ncc(O[C@H]4C[C@@H]5CCC[C@@H](N5)[C@H]4F)nn3)c(O)c2)cn1 (single isomer, unassigned) [Compound 5B]",100 to 500 nM,83%,90%,10.2 ×10⁻⁶ cm/s,43.7 ×10⁻⁶ cm/s,4,–,–
